biological target: T1, human placental aromatase (Homo sapiens, UniProt P11511); assay: Inhibition of human placental aromatase (in vitro test of Thompson and Siiteri, 3H2O release from [1β-3H]androstenedione); assay type: biochemical; conditions: human placental microsomal fraction as enzyme source; compounds incubated for 15 min at 37°C with 50 nM [1β-3H]androstenedione in the presence of NADPH
T1 construct: utilizes the human placental microsomal fraction as enzyme source; from tissue; host or cells: human placenta, microsomal fraction
T1 sequence (P11511 1-503): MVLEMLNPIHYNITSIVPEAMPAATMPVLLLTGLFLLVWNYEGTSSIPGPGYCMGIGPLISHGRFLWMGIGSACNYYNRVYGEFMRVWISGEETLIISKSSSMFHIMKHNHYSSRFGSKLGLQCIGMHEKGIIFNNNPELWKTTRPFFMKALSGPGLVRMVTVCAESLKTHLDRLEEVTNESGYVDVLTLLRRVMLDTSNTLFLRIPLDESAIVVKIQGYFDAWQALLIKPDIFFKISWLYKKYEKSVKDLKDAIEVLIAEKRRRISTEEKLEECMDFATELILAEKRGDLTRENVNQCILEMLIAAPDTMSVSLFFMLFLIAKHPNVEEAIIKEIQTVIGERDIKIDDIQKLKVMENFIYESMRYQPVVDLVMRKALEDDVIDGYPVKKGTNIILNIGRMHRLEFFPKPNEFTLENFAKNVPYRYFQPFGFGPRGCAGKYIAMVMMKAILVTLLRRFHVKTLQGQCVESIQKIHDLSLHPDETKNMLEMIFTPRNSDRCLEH
Protocol: Estrogens are also involved in the pathogenesis of benign prostatic hyperplasia. Endogenous estrogens are ultimately formed from either androstenedione or testosterone as immediate precursors. The reaction of central importance is the aromatization of the steroidic ring A, which is performed by the enzyme aromatase. […] In this test the aromatization rate of androstenedione into estrone was evaluated by incubating (1β-^3H) androstenedione (50 nM) in the presence of NADPH with the enzyme preparation and by measuring the amount of^3H2O formed during 15 min incubation at 37°C.

SMILES	IC50 [nM]
CC1=C(C#N)C(c2cccc(-n3ccnc3)c2)C(C#N)=C(C)N1 [FCE 28718, 4-(3-1H-imidazol-1-yl-phenyl)-2,6-dimethyl-1,4-dihydropyridine-3,5-dicarbonitrile]	1.7
CCOC(=O)C1=C(C)NC(C)=C(C#N)C1c1cccc(-n2ccnc2)c1 (racemic) [FCE 29013, 4-(3-1H-imidazol-1-yl-phenyl)-2,6-dimethyl-1,4-dihydropyridine-3-carbonitrile-5-carboxylic acid ethyl ester]	1.5
CC1=C(C#N)C(c2cccc(-n3cncn3)c2)C(C#N)=C(C)N1 [FCE 29138, 4-[3-(1,2,4)triazol-1-yl-phenyl]-2,6-dimethyl-1,4-dihydropyridine-3,5-dicarbonitrile]	25
Cc1nc(C)c(C#N)c(-c2cccc(-n3ccnc3)c2)c1C#N [FCE 28717, 4-(3-1H-imidazol-1-yl-phenyl)-2,6-dimethylpyridine-3,5-dicarbonitrile]	12

— patent publication EP0755931A1, “Dihydropyridine and pyridine derivatives and process for their preparation” (priority 1995, dated 1997)
